# The source made the active and inactive calls.
# Assays:
# HEK293 [1] = test: NOD2 signaling inhibitors in MDP-stimulated cells, cell-based, uHTS, luminescence (AID 2001); assay type: functional; details: Homo sapiens
# [2] = LGR2 antagonists, dose response, cell-based, HEK293, CRE-luciferase reporter, cherry pick, set 2 (AID 743343); assay type: functional;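 note: transfected cells were stimulated with diluted bursicon conditioned medium after compound addition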
# [3] = MC4R antagonists, dose response, counter-screen for LGR2 antagonist project, cell-based, plate reader, cherry pick (AID 743444); assay type: functional;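 note: transfected HEK 293 cells stimulated with alpha-MSH peptide; potency of inhibitors of the alpha-MSH evoked signal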
# HEK293 [4] = test: NOD1 signaling inhibitors, primary screen, cell-based, luminescence, uHTS (AID 1578); assay type: functional; details: Homo sapiens
# HEK293 [5] = test: cells; assay type: functional, cell-based; details: Homo sapiens
# H4 = test: Inhibitors of Prion Protein 5' UTR mRNA Measured in Cell-Based System Using Plate Reader - 2078-01_Inhibitor_Dose_DryPowder_Activity. [Related pubchem assays (depositor defined):AID488894]; assay type: functional; details: Homo sapiens
# HEK293 [6] = test: cells; assay type: functional, cell-based; details: Homo sapiens; remark: listed apart in the source
# HEK293 [7] = test: cells; assay type: functional, cell-based; details: Homo sapiens; remark: listed apart in the source
# [8] = molecular target: Nucleotide-binding oligomerization domain-containing protein 2 (Homo sapiens, UniProt Q9HC29); test: NOD2 signaling inhibitors, cell-based, luminescence, uHTS, HEK293 (AID 1566); assay type: functional
# HeLa = test: HeLa cell cytotoxicity, dose response, cytotoxicity control, 24 h, cherry-picked samples (AID 504726); assay type: functional, cell-based; details: Homo sapiens;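 note: potency for cytotoxicity as loss of luminescence signal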
# ORF 73 = ORF 73 (Human herpesvirus 8, UniProt O40947); test: inhibitors of C-LANA binding to LBS DNA, dose response, biochemical, fluorescence polarization, cherry-picked samples (AID 504725); design: species or system Human gammaherpesvirus 8;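 note: fluorescence polarization of a labeled DNA duplex reporting LANA DNA binding; potency is for inhibitors that block LANA binding to the DNA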
# [9] = molecular target: T1, Small ubiquitin-related modifier 1 (Homo sapiens, UniProt P63165); test: inhibitors of SUMO1 partner interactions, dose response, biochemical, FRET (AID 624383); assay type: functional; details: read-out: IC50_Mean
# [10] = molecular target: Glutathione-S-transferase (Schistosoma japonicum, UniProt Q26513); test: biotin-GST/anti-GST TR-FRET signal inhibitors, dose response, artefact control for Vif-APOBEC3G degradation inhibitor project, biochemical (AID 1117362); assay type: functional
# [11] = molecular target: Induced myeloid leukemia cell differentiation protein Mcl-1 (Homo sapiens, UniProt Q07820); assay type: functional
# [12] = molecular target: T1, Small ubiquitin-related modifier 1; test: inhibitors of SUMO1 peptide binding, dose response, biochemical, fluorescence polarization, uHTS hits (AID 624382); assay type: functional; details: read-out: IC50_Mean
# Genome polyprotein = Genome polyprotein (dengue virus type 2, UniProt P29990); test: Dengue-2 NS5 methyltransferase inhibitors, primary screen, biochemical, confirmation dose response (AID 588689); assay type: functional
# [13] = molecular target: Beta-adrenergic receptor kinase 1 (Homo sapiens, UniProt P25098); test: aptamer displacement from bead-bound GRK2 – biochemical, cherry pick 1, bead flow cytometry, dose response (AID 504500)
# [14] = inhibitors of SNCA 5'UTR-driven reporter translation, confirmation, H4 neuroglioma cells, luminescence (AID 1988); assay type: functional, cell-based
# [15] = A549 cell cytotoxicity, dose response, cytotoxicity control, plate reader, cherry-pick, antagonist series (AID 743412); assay type: functional, cell-based
# [16] = HEK293 cell cytotoxicity, dose response, cytotoxicity control, plate reader, cherry-picked samples (AID 743446); assay type: functional, cell-based
# [17] = molecular target: Luciferin 4-monooxygenase (Photuris pensylvanica, UniProt Q27757); test: firefly luciferase enzyme inhibitors, dose response, counter-screen for HSF-1 reporter inhibitor project, biochemical, Cell Titer Glo, luminescence, cherry-picks (AID 588847)
# [18] = HepG2 cell cytotoxicity, dose response, cytotoxicity control, plate reader, cherry-pick, antagonist series (AID 743416); assay type: functional, cell-based
# [19] = molecular target: FAD-linked sulfhydryl oxidase ALR (Homo sapiens, UniProt P55789); test: inhibitors of human ALR sulfhydryl oxidase, dose response, biochemical, H2O2 detection, luminescence, cherry-pick (AID 493248)
# [20] = molecular target: T2, Corticotropin-releasing factor receptor 2/Corticotropin-releasing factor-binding protein (Homo sapiens, UniProt P24387+Q13324); test: Dose Response confirmation of uHTS hits for small molecule antagonists of the CRF-binding protein and CRF-R2 receptor complex.; assay type: functional; details: read-out: IC50_Mean
# T2 sequence (Q13324 whole entry): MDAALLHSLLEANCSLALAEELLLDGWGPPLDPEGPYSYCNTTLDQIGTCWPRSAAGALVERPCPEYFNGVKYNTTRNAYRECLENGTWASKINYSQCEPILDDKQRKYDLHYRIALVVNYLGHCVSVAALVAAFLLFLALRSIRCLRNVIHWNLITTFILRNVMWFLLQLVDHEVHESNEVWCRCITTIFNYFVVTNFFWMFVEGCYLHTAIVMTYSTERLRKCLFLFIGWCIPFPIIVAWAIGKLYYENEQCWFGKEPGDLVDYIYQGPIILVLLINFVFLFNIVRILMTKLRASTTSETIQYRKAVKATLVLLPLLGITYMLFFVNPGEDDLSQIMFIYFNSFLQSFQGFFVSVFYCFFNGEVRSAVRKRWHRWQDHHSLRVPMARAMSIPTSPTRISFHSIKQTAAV
# T2 sequence (P24387 whole entry): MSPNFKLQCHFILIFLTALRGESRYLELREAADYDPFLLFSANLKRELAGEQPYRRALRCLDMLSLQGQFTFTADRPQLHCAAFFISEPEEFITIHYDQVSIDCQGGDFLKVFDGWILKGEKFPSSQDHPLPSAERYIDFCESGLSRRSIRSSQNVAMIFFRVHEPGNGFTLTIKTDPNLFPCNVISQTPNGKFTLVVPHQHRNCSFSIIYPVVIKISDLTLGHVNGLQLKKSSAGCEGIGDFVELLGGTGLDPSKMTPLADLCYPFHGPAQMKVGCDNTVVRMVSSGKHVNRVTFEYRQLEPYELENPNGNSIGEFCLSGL
# Major prion protein = Major prion protein (Homo sapiens, UniProt P04156); assay type: functional, cell-based
# [21] = molecular target: T3, RNA-binding protein pos-1 (Caenorhabditis elegans, UniProt G5EF15); test: inhibitors of POS-1/mex-3 RNA binding, dose response, biochemical, fluorescence polarization (AID 1964);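 note: purified POS-1 fused to maltose binding protein made in E. coli; potency of compounds blocking POS-1 binding to fluorescent RNA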
# T3 sequence (G5EF15 whole entry): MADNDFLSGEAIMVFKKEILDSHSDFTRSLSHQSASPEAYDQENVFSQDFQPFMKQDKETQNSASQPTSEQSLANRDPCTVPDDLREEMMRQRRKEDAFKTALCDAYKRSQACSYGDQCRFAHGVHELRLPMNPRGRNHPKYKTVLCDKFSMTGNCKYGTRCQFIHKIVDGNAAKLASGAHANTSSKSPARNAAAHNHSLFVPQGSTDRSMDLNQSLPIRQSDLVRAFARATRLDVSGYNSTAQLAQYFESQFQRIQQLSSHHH
# [22] = molecular target: Dual specificity tyrosine-phosphorylation-regulated kinase 1A (Rattus norvegicus, UniProt Q63470); assay type: biochemical, Homo sapiens
# [23] = molecular target: T4, Zinc finger protein mex-5 (Caenorhabditis elegans, UniProt Q9XUB2); test: MEX-5/TCR-2 RNA interaction inhibitors, dose response, biochemical, C. elegans, fluorescence polarization (AID 1960)
# T4 sequence (Q9XUB2 whole entry): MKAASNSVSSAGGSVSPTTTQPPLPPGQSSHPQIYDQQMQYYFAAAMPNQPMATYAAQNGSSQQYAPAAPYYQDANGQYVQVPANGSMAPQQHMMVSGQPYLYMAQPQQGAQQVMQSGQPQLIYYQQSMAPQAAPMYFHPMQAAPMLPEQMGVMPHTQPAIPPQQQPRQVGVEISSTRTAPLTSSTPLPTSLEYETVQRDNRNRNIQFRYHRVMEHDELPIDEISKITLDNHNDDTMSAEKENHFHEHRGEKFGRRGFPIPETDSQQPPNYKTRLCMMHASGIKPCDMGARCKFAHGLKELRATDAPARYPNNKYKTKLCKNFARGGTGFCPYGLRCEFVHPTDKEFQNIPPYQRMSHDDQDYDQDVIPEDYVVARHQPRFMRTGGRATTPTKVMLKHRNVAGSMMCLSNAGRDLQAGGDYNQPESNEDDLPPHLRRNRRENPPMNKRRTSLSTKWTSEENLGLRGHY
# [24] = molecular target: T5, Rac GTPase-activating protein 1 (Homo sapiens, UniProt Q9H0H5); test: MgcRacGAP GTPase-activating activity inhibitors, confirmation, biochemical, ADP Hunter fluorescence, primary and confirmatory (AID 624330); assay type: functional
# T5 sequence (Q9H0H5 whole entry): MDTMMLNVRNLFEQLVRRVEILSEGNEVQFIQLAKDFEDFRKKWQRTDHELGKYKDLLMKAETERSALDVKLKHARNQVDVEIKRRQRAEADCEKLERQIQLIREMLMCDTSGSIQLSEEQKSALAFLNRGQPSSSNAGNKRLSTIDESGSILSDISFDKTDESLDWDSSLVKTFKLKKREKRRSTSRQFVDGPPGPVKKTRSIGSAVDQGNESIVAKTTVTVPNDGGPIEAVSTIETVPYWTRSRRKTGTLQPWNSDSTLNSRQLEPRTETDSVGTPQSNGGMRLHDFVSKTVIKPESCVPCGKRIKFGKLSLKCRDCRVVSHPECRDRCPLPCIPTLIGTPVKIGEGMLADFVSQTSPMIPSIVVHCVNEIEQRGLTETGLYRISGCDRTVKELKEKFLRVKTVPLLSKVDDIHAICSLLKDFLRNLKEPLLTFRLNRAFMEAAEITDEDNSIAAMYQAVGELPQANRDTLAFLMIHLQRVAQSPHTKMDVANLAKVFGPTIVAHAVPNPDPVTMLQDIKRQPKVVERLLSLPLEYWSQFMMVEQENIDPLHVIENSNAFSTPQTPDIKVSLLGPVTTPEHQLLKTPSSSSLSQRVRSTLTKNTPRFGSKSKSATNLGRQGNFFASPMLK
# [25] = molecular target: T2, Corticotropin-releasing factor receptor 2/Corticotropin-releasing factor-binding protein; test: activators of CRF receptor 2 with binding protein – uHTS hits, confirmation (AID 602473); assay type: functional; details: read-out: EC50_Mean
# [26] = molecular target: T6, Polyadenylate-binding protein 1 (Homo sapiens, UniProt P11940); test: PABP1 MLLE–PAM2 binding inhibitor potency, dose response, biochemical, fluorescence polarization, FITC-PAM2 peptide (AID 602259); assay type: functional; details: read-out: IC50_Mean
# [27] = molecular target: T6, Polyadenylate-binding protein 1; test: PABP1 MLLE–PAM2 interaction inhibitors, dose response, miRNA deadenylation inhibitor project, biochemical, fluorescence polarization, Cy5-PAM2 peptide, secondary (AID 602260); assay type: functional; details: read-out: IC50_Mean
# [28] = molecular target: Type-1 angiotensin II receptor (Homo sapiens, UniProt P30556); test: AT1 receptor antagonists, dose response, selectivity assay for APJ receptor antagonist project, cell-based, uHTS hits (AID 463214); assay type: functional;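 note: antagonist potency against angiotensin II stimulated AT1 response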
# Beta-galactosidase = Beta-galactosidase (Escherichia coli, UniProt Q8VNN2); test: PubChem AID 485352; assay type: functional
# INS1 = test: protection from cytokine-induced mitochondrial depolarization, dose response, cell-based, INS-1E, JC-1 fluorescence ratio, dry powder (AID 488931); assay type: functional; details: Rattus norvegicus
# Cytochrome P450 3A4 = Cytochrome P450 3A4 (Homo sapiens, UniProt P08684); details: Potency;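 note: confirmatory qHTS run detecting inhibitors and substrates of CYP3A4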
# [29] = molecular target: Voltage-gated inwardly rectifying potassium channel KCNH2 (Homo sapiens, UniProt Q12809); details: Potency;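 note: confirmatory quantitative high-throughput screen measuring inhibition of hERG channel activity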
smiles,measurement,setting,value
COc1cc(NC(=O)c2cccs2)c(C(=O)OCC(=O)c2cc(C)n(-c3ccccc3)c2C)cc1OC,IC50,HEK293 [1],> 20 µM (inactive)
same,AC50,[2],9.95 µM (active)
same,AC50,[3],3.07 µM (active)
same,EC50,HEK293 [4],> 20 µM (inactive)
same,IC50,HEK293 [5],> 20 µM (inactive)
same,AC50,H4,2.17 µM (active)
same,IC50,HEK293 [6],> 20 µM (inactive)
same,IC50,HEK293 [7],1.19 µM (active)
same,EC50,[8],7.27 µM (active)
O=C(O)c1cccc2c1NC(C(=O)O)C1CC(Sc3ccccc3[N+](=O)[O-])C(Cl)C21 (centres undefined),AC50,HeLa,179 µM (active)
same,AC50,ORF 73,59.6 µM (active)
same,IC50,[9],5.21 µM (active)
same,IC50,[10],> 100 µM (active)
same,IC50,[11],2.17 µM (active)
same,IC50,[12],> 66.6 µM (inactive)
same,IC50,Genome polyprotein,38.9 µM (active)
same,EC50,[13],19.4 µM (inactive)
N#CCCCC#Cc1ccc2c(c1)COc1c3ccccc3nn1-2,EC50,[14],10.1 µM (inconclusive)
same,AC50,[2],6.24 µM (active)
same,AC50,[3],7.77 µM (active)
same,AC50,[15],> 52 µM (inactive)
same,AC50,[16],> 52 µM (inactive)
same,AC50,[17],1.76 µM (active)
same,AC50,[18],> 52 µM (inactive)
S=c1[nH]c2ccccc2n2c(=S)[nH]nc12,AC50,[19],2.35 µM (active)
same,IC50,[20],> 47.1 µM (inactive)
same,IC50,Major prion protein,> 1.7 µM (active)
same,EC50,[21],10.3 µM (inconclusive)
same,AC50,[22],8 µM (active)
same,EC50,[23],6.1 µM (active)
same,IC50,[24],56.5 µM (active)
same,EC50,[25],> 53 µM (inactive)
same,IC50,[26],> 66 µM (inactive)
same,IC50,[27],> 66 µM (inactive)
Cc1cc(C(=O)NNc2ccc(C)c(C)c2)no1,IC50,[28],8.58 µM (active)
same,EC50,Beta-galactosidase,> 40 µM (inactive)
COc1ccc(S(=O)(=O)N(C)C[C@@H]2Oc3c(NC(=O)Nc4c(C)noc4C)cccc3C(=O)N([C@@H](C)CO)C[C@H]2C)cc1,AC50,INS1,28 µM (active)
CCOP(=S)(OCC)SCCSCC [DISULFOTON],AC50,Cytochrome P450 3A4,20 µM (inconclusive)
same,AC50,[29],1 µM (inconclusive)

# From ChEMBL document CHEMBL1201862, “PubChem BioAssay data set” (2004)
